According to US8232315B2, “Methods for treating drug addiction and improving addiction-related behavior” (SK Biopharmaceuticals Co., Ltd., priority 2009, dated 2012):
“Also recorded” adds a separate entry of the source. Like-named read-outs stand apart in the source and are kept apart here.

System: monkeys trained to discriminate cocaine (0.40 mg/kg) from saline
Experiment: Cocaine drug discrimination (substitution protocol) in rhesus monkeys
Type: in vivo, rhesus monkeys (Macaca mulatta)
Conditions: for ED50: Primates, in Macaca mulatta, cumulative dosing, read-out: ED50 in producing cocaine-appropriate responding; for Effect on response rates: substituting doses of test compound / training dose of cocaine, relative to saline control
Source text: Subjects: The subjects were four male rhesus monkeys (Macaca mulatta) each weighing 7.0-8.0 kg. Each monkey was maintained on a diet of 7-12 monkey biscuits (Purina Monkey Chow Jumbo #5037) and one piece of fresh fruit per day. During the week, all food was delivered after the experimental session, whereas on weekends, food was delivered between 9 a.m. and noon. Water was freely available at all times. The room in which the monkeys were housed was maintained on a 12-hr light/dark cycle, with lights on from 7 a.m. to 7 p.m.
Apparatus: Each monkey was housed individually in a well-ventilated, stainless steel chamber (56×71×69 cm). The home cages of all monkeys were modified to include an operant panel (28×28 cm) mounted on the front wall. Three square translucent response keys (6.4×6.4 cm) were arranged 2.54 cm apart in a horizontal row 3.2 cm from the top of the operant panel. Each key could be transilluminated by red or green stimulus lights (Superbright LED'S). In addition, the operant panel supported an externally mounted pellet dispenser (Gerbrands, Model G53 10, Arlington, Mass.) that delivered 1 gm fruit-flavored food pellets (Precision Primate Pellets Formula L/I Banana Flavor, P. J. Noyes Co., Lancaster, N.H.) to a food receptacle mounted on the cage beneath the operant response panel. Operation of the operant panels and data collection were accomplished with IBM-compatible computers and interface systems (MedAssociates; St. Albans, Vt.) located in a separate room.
Discrimination Training: Discrimination training was conducted 5 days per week during daily sessions composed of multiple cycles. Each cycle consisted of a 15-min time-out period followed by a 5-min response period. During the time-out, all stimulus lights were off, and responding had no scheduled consequences. During the response period, the right and left response keys were transilluminated red or green, and monkeys could earn up to 10 food pellets by responding under a FR 30 schedule of food presentation. For all four monkeys in this study, the left key was illuminated green, and the right key was illuminated red. The center key was not illuminated at any time, and responding on the center key had no scheduled consequences. If all available food pellets were delivered before the end of the 5-min response period, the stimulus lights transilluminating the response keys were turned off, and responding had no scheduled consequences for the remainder of the 5-min period.
On training days, monkeys were given an i.m. injection of either saline or 0.40 mg/kg cocaine 5-min after the beginning of each time-out period (i.e., 10 min before the response period). Following the administration of saline, responding on only the green key (the saline-appropriate key) produced food, whereas following administration of 0.40 mg/kg cocaine, only responding on the red key (the drug-appropriate key) produced food. Responses on the inappropriate key reset the FR requirement on the appropriate key. Sessions consisted of 1 to 5 cycles, and if the training dose of cocaine was administered, it was administered only during the last cycle. Thus, training days consisted of 0 to 5 saline cycles followed by 0 to 1 drug cycles.
During each response period, 3 dependent variables were determined using the following equations.
1) Percent injection-appropriate responding prior to delivery of the first reinforcer.
2) Percent injection-appropriate responding for the entire response period.
Monkeys were considered to have acquired cocaine discrimination when the following three criteria were met for 7 of 8 consecutive training sessions: 1) the percent injection-appropriate responding prior to delivery of the first reinforcer was greater than or equal to 80% for all cycles; 2) the percent injection-appropriate responding for the entire cycle was greater than or equal to 90% for all cycles; 3) response rates during saline training cycles were greater than 0.5 responses per second. […]

Structure (SMILES): NC(=O)OC[C@H](N)Cc1ccccc1 [test compound, O-carbamoyl-(D)-phenylalaminol]
- ED50 (monkey 92N012): 1.8 mg/kg
- ED50 (monkey 153F): 5.6 mg/kg
- ED50 (monkey 186F): 13.4 mg/kg
- ED50 (monkey L958): 5.6 mg/kg
- Overt behavioral effects (across the dose range tested (0.1-18 mg/kg)): did not produce noticeable overt behavioral effects
- Substitution for the cocaine training stimulus (all four monkeys, 0.1-18 mg/kg): dose-dependent and complete substitution; also recorded: substituted completely
- Effect on response rates (monkey 92N012): increased response rates
- Effect on response rates (monkey 153F): decreased response rates
- Effect on response rates (monkey 186F): had no effect on response rates
- Potency relative to cocaine (fold less potent) (rhesus monkeys, cocaine-like behavioral effects): approximately 20 fold
